A word on the IC50: it is the concentration at which inhibition is half-maximal.

A value given as a limit tells only on which side of the number the result lay.

Assay [1] addresses T1, Human PDGFRβ, cytoplasmic domain (GST-PDGFRβ) (Homo sapiens, UniProt P09619).
T1 construct: made in house
Description: Human PDGFRβ biochemical inhibition assay (off-chip Mobility Shift Assay). The procedure, abridged:
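GST-tagged cytoplasmic domain (aa 557-1106) from baculovirus was incubated 1 h at room temperature with compound, CSKtide, ATP at Km and Mg²⁺ in HEPES buffer, pH 7.5. Phosphorylated and unphosphorylated peptide were separated by off-chip mobility shift, and the product ratio P/(P+S) gave percent inhibition.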

For assay [2], the target named is T2, Human PDGFRα, cytoplasmic domain (GST-PDGFRα) (Homo sapiens, UniProt P16234).
T2 construct: made in house
Description: Human PDGFRα biochemical inhibition assay (off-chip Mobility Shift Assay).

T1 sequence (P09619 with tags, fused parts or gaps): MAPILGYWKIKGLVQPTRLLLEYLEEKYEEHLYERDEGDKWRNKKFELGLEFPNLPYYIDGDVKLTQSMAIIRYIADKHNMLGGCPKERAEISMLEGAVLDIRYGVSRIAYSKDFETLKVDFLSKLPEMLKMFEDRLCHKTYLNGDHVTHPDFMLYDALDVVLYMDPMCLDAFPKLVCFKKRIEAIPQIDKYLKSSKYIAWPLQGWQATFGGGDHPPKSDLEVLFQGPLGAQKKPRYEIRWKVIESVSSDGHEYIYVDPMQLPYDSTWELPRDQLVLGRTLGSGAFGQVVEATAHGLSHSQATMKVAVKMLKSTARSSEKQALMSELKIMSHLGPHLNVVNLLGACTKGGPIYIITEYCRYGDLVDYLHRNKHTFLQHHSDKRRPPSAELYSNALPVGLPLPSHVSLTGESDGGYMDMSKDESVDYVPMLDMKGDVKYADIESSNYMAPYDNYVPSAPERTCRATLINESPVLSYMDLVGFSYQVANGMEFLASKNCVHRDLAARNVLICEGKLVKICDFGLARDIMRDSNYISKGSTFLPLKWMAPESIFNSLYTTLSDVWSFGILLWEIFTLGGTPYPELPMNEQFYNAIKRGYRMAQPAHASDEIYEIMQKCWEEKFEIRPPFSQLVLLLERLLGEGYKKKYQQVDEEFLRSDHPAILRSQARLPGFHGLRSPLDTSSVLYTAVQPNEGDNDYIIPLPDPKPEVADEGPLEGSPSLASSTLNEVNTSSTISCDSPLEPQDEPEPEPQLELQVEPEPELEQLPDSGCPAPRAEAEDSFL
T2 sequence (P16234 550-1089 T674I): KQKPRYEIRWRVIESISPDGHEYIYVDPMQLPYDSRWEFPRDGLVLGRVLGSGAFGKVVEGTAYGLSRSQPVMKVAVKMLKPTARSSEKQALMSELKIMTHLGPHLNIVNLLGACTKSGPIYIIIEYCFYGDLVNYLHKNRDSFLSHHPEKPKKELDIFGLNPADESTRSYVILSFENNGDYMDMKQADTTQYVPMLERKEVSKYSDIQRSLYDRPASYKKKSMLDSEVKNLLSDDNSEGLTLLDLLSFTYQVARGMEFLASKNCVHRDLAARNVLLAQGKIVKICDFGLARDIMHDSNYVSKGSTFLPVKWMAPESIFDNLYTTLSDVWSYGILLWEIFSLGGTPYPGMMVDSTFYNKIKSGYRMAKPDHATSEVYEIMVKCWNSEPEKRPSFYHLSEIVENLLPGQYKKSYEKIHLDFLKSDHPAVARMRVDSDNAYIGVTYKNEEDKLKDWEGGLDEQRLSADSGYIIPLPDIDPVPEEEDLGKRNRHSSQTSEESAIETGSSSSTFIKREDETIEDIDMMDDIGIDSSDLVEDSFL

In the case of `CCn1cc2ncc(N[C@@H](C)c3cccc(NC(=O)Cc4cccnc4)c3)nc2n1` [Compound 624, (S)-N-(3-(1-((2-ethyl-2H-pyrazolo[3,4-b]pyrazin-6-yl)amino)ethyl)phenyl)-2-(pyridin-3-yl)acetamide], the IC50 in assay [1] was at least 1 µM; in assay [2], 0.3 to 1 µM.

On to `CCn1cc2ncc(N[C@@H](C)c3cccc(NC(=O)Cc4cccc(F)c4)c3)nc2n1` [Compound 625, (S)-N-(3-(1-((2-ethyl-2H-pyrazolo[3,4-b]pyrazin-6-yl)amino)ethyl)phenyl)-2-(3-fluorophenyl)acetamide], for which the figures for the IC50 in assay [1] and in assay [2] were 0.3 to 1 µM and below 0.3 µM, respectively.

With `CCn1cc2ncc(N[C@@H](C)c3cccc(NC(=O)Cc4ccc(OC)c(F)c4)c3)nc2n1` [Compound 626, (S)-N-(3-(1-((2-ethyl-2H-pyrazolo[3,4-b]pyrazin-6-yl)amino)ethyl)phenyl)-2-(3-fluoro-4-methoxyphenyl) acetamide], the IC50 in assay [1] was at least 1 µM; in assay [2] it was below 0.3 µM.

Consider `CCn1cc2ncc(N[C@@H](C)c3cccc(NC(=O)Cc4ccc(Cl)c(F)c4)c3)nc2n1` [Compound 627, (S)-2-(4-chloro-3-fluorophenyl)-N-(3-(1-((2-ethyl-2H-pyrazolo[3,4-b]pyrazin-6-yl)amino)ethyl)phenyl)acetamide], for which the IC50 in assay [1] was 0.3 to 1 µM; in assay [2] it was below 0.3 µM.

As for `CCn1cc2ncc(N[C@@H](C)c3cccc(NC(=O)Cc4ccc(C(F)(F)F)c(F)c4)c3)nc2n1` [Compound 628, (S)-N-(3-(1-((2-ethyl-2H-pyrazolo[3,4-b]pyrazin-6-yl)amino)ethyl)phenyl)-2-(3-fluoro-4-(trifluoromethyl)phenyl)acetamide], the IC50 in assay [1] is at least 1 µM; in assay [2], below 0.3 µM.

`C[C@H](Nc1cnc2cnn(C)c2n1)c1cccc(NC(=O)Cc2cnn(C)c2)c1` [Compound 629, (S)-2-(1-methyl-1H-pyrazol-4-yl)-N-(3-(1-((1-methyl-1H-pyrazolo[3,4-b]pyrazin-6-yl)amino)ethyl)phenyl)acetamide]: the IC50 in assay [1] is at least 1 µM; in assay [2], below 0.3 µM.

For the compound `CCn1cc2ncc(N[C@@H](C)c3cccc(NC(=O)Cc4cccc(C(F)(F)F)c4)c3)nc2n1` [Compound 630, (S)-N-(3-(1-((2-ethyl-2H-pyrazolo[3,4-b]pyrazin-6-yl)amino)ethyl)phenyl)-2-(3-(trifluoromethyl)phenyl) acetamide], the IC50 in assay [1] was 0.3 to 1 µM; in assay [2] it was below 0.3 µM.

On to `CCn1cc2ncc(N[C@@H](C)c3cccc(NC(=O)Cc4ccc(F)c(Cl)c4)c3)nc2n1` [Compound 631, (S)-2-(3-chloro-4-fluorophenyl)-N-(3-(1-((2-ethyl-2H-pyrazolo[3,4-b]pyrazin-6-yl)amino)ethyl)phenyl)acetamide], for which the IC50 in assay [1] and in assay [2] was below 0.3 µM throughout.

As for `CCn1cc2ncc(N[C@@H](C)c3cccc(NC(=O)Cc4ccc(F)c(C)c4)c3)nc2n1` [Compound 632, (S)-N-(3-(1-((2-ethyl-2H-pyrazolo[3,4-b]pyrazin-6-yl)amino)ethyl)phenyl)-2-(4-fluoro-3-methylphenyl) acetamide], the IC50 in assay [1] and in assay [2] was below 0.3 µM in each case.

As for `CCn1cc2ncc(N[C@@H](C)c3cccc(NC(=O)Cc4ccccc4)c3)nc2n1` [Compound 633, (S)-N-(3-(1-((2-ethyl-2H-pyrazolo[3,4-b]pyrazin-6-yl)amino)ethyl)phenyl)-2-phenylacetamide], the values for the IC50 in assay [1] and in assay [2] were 0.3 to 1 µM and below 0.3 µM, respectively.

Consider `CCn1cc2ncc(N[C@@H](C)c3cc(NC(=O)Cc4cccc(C)c4)ccc3F)nc2n1` [Compound 634, (S)-N-(3-(1-((2-ethyl-2H-pyrazolo[3,4-b]pyrazin-6-yl)amino)ethyl)-4-fluorophenyl)-2-(m-tolyl)acetamide], for which the IC50 in assay [1] and in assay [2] was below 0.3 µM in each case.

`CCn1cc2ncc(N[C@@H](C)c3cc(NC(=O)Cc4cccc(Cl)c4)ccc3F)nc2n1` [Compound 635, (S)-2-(3-chlorophenyl)-N-(3-(1-((2-ethyl-2H-pyrazolo[3,4-b]pyrazin-6-yl)amino)ethyl)-4-fluorophenyl)acetamide]: the IC50 in assay [1] and in assay [2] was below 0.3 µM throughout.

As to `CCn1cc2ncc(N[C@@H](C)c3cc(NC(=O)Cc4cccc(C(F)(F)F)c4)ccc3F)nc2n1` [Compound 636, (S)-N-(3-(1-((2-ethyl-2H-pyrazolo[3,4-b]pyrazin-6-yl)amino)ethyl)-4-fluorophenyl)-2-(3-(trifluoromethyl)phenyl) acetamide], the IC50 in assay [1] and in assay [2] was below 0.3 µM throughout.

For `CCn1cc2ncc(N[C@@H](C)c3cc(NC(=O)Cc4ccccc4)ccc3F)nc2n1` [Compound 637, (S)-N-(3-(1-((2-ethyl-2H-pyrazolo[3,4-b]pyrazin-6-yl)amino)ethyl)-4-fluorophenyl)-2-phenylacetamide], the IC50 in assay [1] and in assay [2] was below 0.3 µM each time.

Take `CCn1cc2ncc(N[C@@H](C)c3cccc(NC(=O)Cc4ccc(F)cc4)c3)nc2n1` [Compound 638, (S)-N-(3-(1-((2-ethyl-2H-pyrazolo[3,4-b]pyrazin-6-yl)amino)ethyl)phenyl)-2-(4-fluorophenyl)acetamide]: the IC50 in assay [1] and in assay [2] was below 0.3 µM in each case.

Consider `CCn1cc2ncc(N[C@@H](C)c3cccc(NC(=O)Cc4cc(C)cc(F)c4)c3)nc2n1` [Compound 639, (S)-N-(3-(1-((2-ethyl-2H-pyrazolo[3,4-b]pyrazin-6-yl)amino)ethyl)phenyl)-2-(3-fluoro-5-methylphenyl) acetamide], for which the IC50 in assay [1] and in assay [2] was below 0.3 µM throughout.

Regarding `CCn1cc2ncc(N[C@@H](C)c3cccc(NC(=O)Cc4cc(F)ccc4F)c3)nc2n1` [Compound 640, (S)-2-(2,5-difluorophenyl)-N-(3-(1-((2-ethyl-2H-pyrazolo[3,4-b]pyrazin-6-yl)amino)ethyl)phenyl)acetamide], the IC50 in assay [1] was 0.3 to 1 µM; in assay [2] it was below 0.3 µM.

Turning to `CCn1cc2ncc(N[C@@H](C)c3cccc(NC(=O)Cc4cc(F)cc(Cl)c4)c3)nc2n1` [Compound 641, (S)-2-(3-chloro-5-fluorophenyl)-N-(3-(1-((2-ethyl-2H-pyrazolo[3,4-b]pyrazin-6-yl)amino)ethyl)phenyl)acetamide], the IC50 in assay [1] and in assay [2] was below 0.3 µM throughout.

In the case of `CCn1cc2ncc(N[C@@H](C)c3cccc(NC(=O)Cc4cccc(C(F)(F)F)n4)c3)nc2n1` [Compound 642, (S)-N-(3-(1-((2-ethyl-2H-pyrazolo[3,4-b]pyrazin-6-yl)amino)ethyl)phenyl)-2-(6-(trifluoromethyl)pyridin-2-yl) acetamide], the IC50 in assay [1] was 0.3 to 1 µM; in assay [2] it was below 0.3 µM.

Consider `CCn1cc2ncc(N[C@@H](C)c3cccc(NC(=O)Cc4cc(F)cc(F)c4)c3)nc2n1` [Compound 643, (S)-2-(3,5-difluorophenyl)-N-(3-(1-((2-ethyl-2H-pyrazolo[3,4-b]pyrazin-6-yl)amino)ethyl)phenyl)acetamide], for which the IC50 is 0.3 to 1 µM in assay [1] and below 0.3 µM in assay [2].

Regarding `CCn1cc2ncc(N[C@@H](C)c3cccc(NC(=O)Cc4ccncc4)c3)nc2n1` [Compound 644, (S)-N-(3-(1-((2-ethyl-2H-pyrazolo[3,4-b]pyrazin-6-yl)amino)ethyl)phenyl)-2-(pyridin-4-yl)acetamide], the IC50 in assay [1] and in assay [2] was at least 1 µM each time.

With `CCn1cc2ncc(N[C@@H](C)c3cccc(NC(=O)Cc4ccccn4)c3)nc2n1` [Compound 645, (S)-N-(3-(1-((2-ethyl-2H-pyrazolo[3,4-b]pyrazin-6-yl)amino)ethyl)phenyl)-2-(pyridin-2-yl)acetamide], the IC50 in assay [1] is at least 1 µM; in assay [2], 0.3 to 1 µM.

For `CCn1cc2ncc(N[C@@H](C)c3cccc(NC(=O)Cc4cc(F)cc(CN5CCN(C)CC5)c4)c3)nc2n1` [Compound 646, (S)-N-(3-(1-((2-ethyl-2H-pyrazolo[3,4-b]pyrazin-6-yl)amino)ethyl)phenyl)-2-(3-fluoro-5-((4-methylpiperazin-1-yl)methyl)phenyl)acetamide], the IC50 was 0.3 to 1 µM in assay [1] and below 0.3 µM in assay [2].

For the compound `CCn1cc2ncc(N[C@@H](C)c3cccc(NC(=O)Cc4ccc(F)cn4)c3)nc2n1` [Compound 647, (S)-N-(3-(1-((2-ethyl-2H-pyrazolo[3,4-b]pyrazin-6-yl)amino)ethyl)phenyl)-2-(5-fluoropyridin-2-yl)acetamide], the values for the IC50 in assay [1] and in assay [2] were at least 1 µM and below 0.3 µM, respectively.

As for `CCn1cc2ncc(N[C@@H](C)c3cccc(NC(=O)Cc4ccc(F)c(F)c4)c3)nc2n1` [Compound 648, (S)-2-(3,4-difluorophenyl)-N-(3-(1-((2-ethyl-2H-pyrazolo[3,4-b]pyrazin-6-yl)amino)ethyl)phenyl)acetamide], the IC50 in assay [1] and in assay [2] was below 0.3 µM throughout.

With `CCn1cc2ncc(N[C@@H](C)c3cc(NC(=O)Cc4ccc(F)cn4)ccc3F)nc2n1` [Compound 649, (S)-N-(3-(1-((2-ethyl-2H-pyrazolo[3,4-b]pyrazin-6-yl)amino)ethyl)-4-fluorophenyl)-2-(5-fluoropyridin-2-yl)acetamide], the IC50 in assay [1] is 0.3 to 1 µM; in assay [2] it was below 0.3 µM.

As to `CCn1cc2ncc(N[C@@H](C)c3cc(NC(=O)Cc4ccc(Cl)cn4)ccc3F)nc2n1` [Compound 650, (S)-2-(5-chloropyridin-2-yl)-N-(3-(1-((2-ethyl-2H-pyrazolo[3,4-b]pyrazin-6-yl)amino)ethyl)-4-fluorophenyl)acetamide], the IC50 in assay [1] was 0.3 to 1 µM; in assay [2], below 0.3 µM.

On to `CCn1cc2ncc(N[C@@H](C)c3cc(NC(=O)Cc4ccc(C)nc4)ccc3F)nc2n1` [Compound 651, (S)-N-(3-(1-((2-ethyl-2H-pyrazolo[3,4-b]pyrazin-6-yl)amino)ethyl)-4-fluorophenyl)-2-(6-methylpyridin-3-yl) acetamide], for which the IC50 in assay [1] was at least 1 µM; in assay [2], below 0.3 µM.

These data come from US20230102554A1 (GB002, INC., priority 2019, published 2023).
